Measurements taken from PubChem BioAssay (NCI).
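In this assay, cells in 96-well plates receive the compound at five concentrations for 48 hours. Endpoints are linearly interpolated between the surrounding concentrations. Here, GI50 denotes the concentration required for 50% inhibition of growth. TGI: concentration producing complete growth inhibition.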

Experiments:
Experiment in all cases: NCI anticancer screen, dose series, 48 h
[1] = test system: SK-MEL-5 melanoma
[2] = test system: SF-539 CNS
[3] = test system: 786-0 renal
[4] = test system: SNB-75 CNS
[5] = test system: UACC-62 melanoma
[6] = test system: OVCAR-3 ovarian
[7] = test system: LOX IMVI melanoma
[8] = test system: RPMI-8226 leukemia
[9] = test system: NCI-H226 lung
[10] = test system: CAKI-1 renal
[11] = test system: A549 NSCLC
[12] = test system: MALME-3M melanoma
[13] = test system: NCI/ADR-RES ovarian
[14] = test system: T-47D breast
[15] = test system: OVCAR-5 ovarian
[16] = test system: MCF7 breast
[17] = test system: MDA-MB-435
[18] = test system: UACC-257 melanoma
[19] = test system: NCI-H23 lung
[20] = test system: HS 578T breast
[21] = test system: HCT-15 colon
[22] = test system: SNB-19 CNS
[23] = test system: HCT-116 colon
[24] = test system: HCC-2998 colon
[25] = test system: HT29 colon
[26] = test system: A498 renal
[27] = test system: EKVX NSCLC
[28] = test system: NCI-H460 lung
[29] = test system: SK-MEL-2 melanoma
[30] = test system: SK-MEL-28 melanoma
[31] = test system: UO-31 renal
[32] = test system: SR leukemia
[33] = test system: HL-60(TB) leukemia
[34] = test system: K-562 leukemia
[35] = test system: IGROV1 ovarian
[36] = test system: SW-620 colon
[37] = test system: SN12C renal
[38] = test system: CCRF-CEM leukemia
[39] = test system: ACHN renal
[40] = test system: SK-OV-3 ovarian
[41] = test system: DU-145 prostate
[42] = test system: NCI-H522 lung
[43] = test system: RXF 393 renal
[44] = test system: SF-268 CNS
[45] = test system: PC-3 prostate
[46] = test system: U251 CNS
[47] = test system: MDA-MB-231 breast
[48] = test system: KM12 colon
[49] = test system: SF-295 CNS
[50] = test system: OVCAR-8 ovarian
[51] = test system: OVCAR-4 ovarian
[52] = test system: M14 melanoma
[53] = test system: COLO 205 colon
[54] = test system: HOP-92 NSCLC
[55] = test system: TK-10 renal
[56] = test system: MOLT-4 leukemia
[57] = test system: BT-549 breast
[58] = test system: HOP-62 NSCLC

Compound `COc1cc(/C=C/C(=O)c2ccc(Nc3nc(Nc4ccc(F)cc4)nc(Nc4ccc(Cl)cc4)n3)cc2)cc(OC)c1OC` has a GI50 [1] of 4.16 µM, a TGI [1] of 19 µM and a GI50 [2] of 6.54 µM. For the same compound, the TGI [2] was 15.3 µM, the GI50 [3] was 6.13 µM and the TGI [3] was 17.8 µM. The GI50 [4] was 3.67 µM, the TGI [4] was 38.7 µM and the GI50 [5] was 6.66 µM. For the same compound, the TGI [5] was 23.7 µM, the GI50 [6] was 4.14 µM and the TGI [6] was 15.9 µM. For the same compound, the GI50 [7] was 1.82 µM, the TGI [7] was 4.84 µM and the GI50 [8] was 0.811 µM. It also gave a TGI [8] of 4.8 µM, a GI50 [9] of 3.63 µM and a TGI [9] of 34.4 µM. The GI50 [10] was > 100 µM, the TGI [10] was > 100 µM and the GI50 [11] was 12.1 µM. It also gave a TGI [11] of 99 µM, a GI50 [12] of 5.41 µM and a TGI [12] of 13.7 µM. The GI50 [13] was 7.19 µM, the TGI [13] was > 85.3 µM and the GI50 [14] was 5.6 µM. For the same compound, the TGI [14] was > 62.2 µM, the GI50 [15] was 12.6 µM and the TGI [15] was 45.5 µM. It also gave a GI50 [16] of 1.87 µM, a TGI [16] of 20.3 µM and a GI50 [17] of 7.6 µM. For the same compound, the TGI [17] was > 26.4 µM, the GI50 [18] was 6.76 µM and the TGI [18] was 22.9 µM. The GI50 [19] was 3.99 µM, the TGI [19] was 20.7 µM and the GI50 [20] was 2.75 µM. For the same compound, the TGI [20] was 11.9 µM, the GI50 [21] was 2.02 µM and the TGI [21] was > 29.4 µM. The GI50 [22] was 18.9 µM, the TGI [22] was > 100 µM and the GI50 [23] was 3.13 µM. It also gave a TGI [23] of 14.2 µM, a GI50 [24] of 0.804 µM and a TGI [24] of 2.3 µM. The GI50 [25] was 2.81 µM, the TGI [25] was 17.5 µM and the GI50 [26] was 3.23 µM. The TGI [26] was 13.6 µM, the GI50 [27] was > 24 µM and the TGI [27] was > 100 µM. It also gave a GI50 [28] of 4.3 µM, a TGI [28] of 28 µM and a GI50 [29] of 5.51 µM. The TGI [29] was 27 µM, the GI50 [30] was 1.82 µM and the TGI [30] was 3.71 µM. For the same compound, the GI50 [31] was 6.7 µM, the TGI [31] was > 61.8 µM and the GI50 [32] was 1.03 µM. The TGI [32] was 3.74 µM, the GI50 [33] was 0.523 µM and the TGI [33] was 3.23 µM. For the same compound, the GI50 [34] was 1.74 µM, the TGI [34] was 8.19 µM and the GI50 [35] was 4.66 µM. The TGI [35] was 31.8 µM, the GI50 [36] was 3.78 µM and the TGI [36] was 17.2 µM. It also gave a GI50 [37] of 5.69 µM, a TGI [37] of 54.4 µM and a GI50 [38] of 1.09 µM. The TGI [38] was 6.69 µM, the GI50 [39] was 5.88 µM and the TGI [39] was 61.1 µM. For the same compound, the GI50 [40] was 46.8 µM, the TGI [40] was > 100 µM and the GI50 [41] was 10.6 µM. The TGI [41] was > 65.9 µM, the GI50 [42] was 3.8 µM and the TGI [42] was > 53.9 µM. It also gave a GI50 [43] of 1.12 µM, a TGI [43] of 2.9 µM and a GI50 [44] of 9.23 µM. For the same compound, the TGI [44] was 58.1 µM, the GI50 [45] was 1.04 µM and the GI50 [46] was 3.19 µM. For the same compound, the TGI [46] was > 34.7 µM, the GI50 [47] was 5.77 µM and the TGI [47] was > 37.9 µM. For the same compound, the GI50 [48] was 3.35 µM, the TGI [48] was 19.9 µM and the GI50 [49] was 12.6 µM. For the same compound, the TGI [49] was > 44.9 µM, the GI50 [50] was 0.94 µM and the TGI [50] was 11.1 µM. For the same compound, the GI50 [51] was 6.75 µM, the TGI [51] was > 100 µM and the GI50 [52] was 10.1 µM. The TGI [52] was 43.5 µM, the GI50 [53] was 7.1 µM and the TGI [53] was 41.2 µM. The TGI [54] was 4.75 µM, the GI50 [55] was 19.8 µM and the TGI [55] was 76.4 µM. The GI50 [56] was 1.15 µM, the TGI [56] was 3.6 µM and the GI50 [57] was 8.16 µM. The TGI [57] was 59.3 µM, the GI50 [58] was 24.6 µM and the TGI [58] was > 73.8 µM.

In the case of `O=C(ON=c1c2ccccc2ccc2ccccc12)c1ccccc1`, the TGI [1] is reported as 29.8 µM, the TGI [2] is reported as 32.8 µM and the TGI [3] is reported as > 62.4 µM. It also gave a TGI [4] of 99.7 µM, a TGI [5] of 30.5 µM and a TGI [6] of 62.1 µM. For the same compound, the TGI [7] was > 62.1 µM, the TGI [8] was 73.5 µM and the TGI [9] was 57.9 µM. For the same compound, the TGI [10] was 79 µM, the TGI [11] was > 92.7 µM and the TGI [12] was 50.5 µM. The TGI [13] was 56.3 µM, the TGI [14] was 91.4 µM and the TGI [15] was > 100 µM. It also gave a TGI [16] of 45.5 µM, a TGI [17] of 42.7 µM and a TGI [18] of 93.4 µM. The TGI [19] was > 100 µM, the TGI [20] was 59.9 µM and the TGI [21] was > 95.9 µM. The TGI [22] was > 84.1 µM, the TGI [23] was 34.1 µM and the TGI [24] was > 87.7 µM. The TGI [25] was > 74.2 µM, the TGI [26] was 50.3 µM and the TGI [27] was 96.9 µM. For the same compound, the TGI [28] was > 80.4 µM, the TGI [29] was > 58 µM and the TGI [30] was 56.3 µM. It also gave a TGI [31] of 57.4 µM, a TGI [32] of 32.4 µM and a TGI [33] of 29.5 µM. The TGI [34] was > 58.1 µM, the TGI [35] was > 67.3 µM and the TGI [36] was 43.3 µM. The TGI [37] was > 68.9 µM, the TGI [38] was > 76 µM and the TGI [39] was > 100 µM. The TGI [40] was > 91.1 µM, the TGI [41] was > 100 µM and the TGI [42] was 47.3 µM. The TGI [43] was 23.6 µM, the TGI [44] was > 86 µM and the TGI [45] was > 93 µM. The TGI [46] was 39 µM, the TGI [47] was > 65.2 µM and the TGI [48] was 35.6 µM. The TGI [49] was > 73.4 µM, the TGI [50] was > 67.7 µM and the TGI [51] was > 89.1 µM. It also gave a TGI [52] of 33.5 µM, a TGI [53] of 35.7 µM and a TGI [54] of 67.5 µM. The TGI [55] was > 100 µM, the TGI [56] was 16.2 µM and the TGI [57] was 64.2 µM. It also gave a TGI [58] of 59 µM.
